Assays:
Assay type in all cases: in vivo
Eleusine indica [1] = assay: Glasshouse post-emergence test, visual damage, Tables B1-2 and B1-3; settings: 14 days after application
Method: Seeds of a variety of test species are sown in standard soil in pots. For each treatment, three replicate pots containing 10-15 plants per one-inch pot were sprayed at the 2-3 leaf stage. […] The test plants are then grown in a glasshouse under controlled conditions in a glasshouse (at 24/16° C., day/night; 14 hours light; 65% humidity) and watered twice daily. Plants were assessed for visual damage compared to the untreated control 14 days after application (0=0% damage; 100=100% damage).

Volunteer corn = assay: 26 field trials, control of volunteer corn, Table B1-6; settings: 100 g/ha
Eleusine indica [2] = assay: Further glasshouse test versus other ACCase-inhibiting herbicides, Table B2-2; settings: 21 days after application
Description: (§1) Further tests were employed to test the efficacy of a compound of Formula I versus other ACCase-inhibiting herbicides. The five main targets were Lolium multiflorum, Eleusine indica, Digitaria insularis, Sorghum halepense and Echinochloa crus-galli. Collectively, the populations contained all the major target-site resistance mutations affecting ACCase herbicides. Two L. multiflorum (LM-NTSR-1 and LM-NTSR-2) and one E. crus-galli (ECG-NTSR-1) populations were characterised exclusively by non-target-site resistance (“NTSR”). The target-site resistant L. multiflorum and E. indication populations were 100% homozygous for different ACCase mutations whilst the D. insularis, S. halepense and E. crus-galli samples contained a mixture of homozygous wild and mutant individuals at different genotypic frequencies. Additional underlying NTSR cannot be ruled out in the populations characterised by target-site resistance.
(§2) Around 50 seeds of each of the 24 weed populations were sown in 12-cm pots containing a mixture of peat and compost in a 1:1 ratio. The pots were watered, fertilised and kept in controlled glasshouse conditions set at 24° C./16 hr day, 18° C. night, 65% relative humidity, and a photon flux density of approximately 250 μmol quanta m^−2 s^−1 for Lolium multiflorum. The E. indica, D. insularis, S. halepense and E. crus-galli plants were kept in a separate glasshouse bay characterised by a 17 H photoperiod of 180 μmol m^−2 s^−1 with temperatures of 25° C. day and 19° C. night and 65% relative humidity. When the plants were at the two to four-leaf stage, they were treated with the various ACCase-inhibiting herbicides at 0, 15, 30, 60, 120 and 240 g ai ha^−1 in a spray cabinet mounted with a single mobile Teejet flat fan nozzle (11002VS) calibrated to deliver 200 L ha^−1 at 200 kPa. The L. multiflorum populations were treated by a compound of Formula Ic, clodinafop-propargyl, pinoxaden, cycloxydim and clethodim and the warm season grass weeds E. indica, D. insularis, S. halepense and E. crus-galli were sprayed with a Compound Ic and the commonly employed haloxyfop-methyl and clethodim. Three replicate pots were used per population. Plants were assessed for visual damage compared to the untreated control 21 days after application (0=0% damage; 100=100% damage).

Digitaria insularis = assay: Further glasshouse test versus other ACCase-inhibiting herbicides, Table B2-3; settings: 21 days after application
Description: as §1, §2

Sorghum halepense = assay: Further glasshouse test versus other ACCase-inhibiting herbicides, Table B2-4; settings: 21 days after application
Description: as §1, §2

Echinochloa Crus-galli = assay: Further glasshouse test versus other ACCase-inhibiting herbicides, Table B2-5; settings: 21 days after application
Description: as §1, §2

For CCSC(C)CC1CC(=O)C(/C(CC)=N/OC/C=C/Cl)=C(O)C1 (centres unmarked) [Clethodim, clethodim], the visual damage (Eleusine indica [1]; Table B1-2, biotype 87% I1781L (heterozygous), 15 g/ha) was 80%, the visual damage (Eleusine indica [1]; Table B1-2, biotype 87% I1781L (heterozygous), 30 g/ha) was 77% and the visual damage (Eleusine indica [1]; Table B1-2, biotype 87% I1781L (heterozygous), 60 g/ha) was 100%. The visual damage (Eleusine indica [1]; Table B1-2, biotype 87% I1781L (heterozygous), 120 g/ha) was 100%, the visual damage (Eleusine indica [1]; Table B1-2, biotype D2078G + W2027C (heterozygous), first entry, 15 g/ha) was 50% and the visual damage (Eleusine indica [1]; Table B1-2, biotype D2078G + W2027C (heterozygous), first entry, 30 g/ha) was 60%. It also gave a visual damage (Eleusine indica [1]; Table B1-2, biotype D2078G + W2027C (heterozygous), first entry, 60 g/ha) of 70%, a visual damage (Eleusine indica [1]; Table B1-2, biotype D2078G + W2027C (heterozygous), first entry, 120 g/ha) of 80% and a visual damage (Eleusine indica [1]; Table B1-2, biotype D2078G + W2027C (heterozygous), second entry, 15 g/ha) of 63%. It also gave a visual damage (Eleusine indica [1]; Table B1-2, biotype D2078G + W2027C (heterozygous), second entry, 30 g/ha) of 67%, a visual damage (Eleusine indica [1]; Table B1-2, biotype D2078G + W2027C (heterozygous), second entry, 60 g/ha) of 93% and a visual damage (Eleusine indica [1]; Table B1-2, biotype D2078G + W2027C (heterozygous), second entry, 120 g/ha) of 100%. The visual damage (Eleusine indica [1]; Table B1-2, biotype I2041N (heterozygous), 15 g/ha) was 82%, the visual damage (Eleusine indica [1]; Table B1-2, biotype I2041N (heterozygous), 30 g/ha) was 100% and the visual damage (Eleusine indica [1]; Table B1-2, biotype I2041N (heterozygous), 60 g/ha) was 100%. It also gave a visual damage (Eleusine indica [1]; Table B1-2, biotype I2041N (heterozygous), 120 g/ha) of 100%, a visual damage (Eleusine indica [1]; Table B1-2, biotype NTSR (non-target site resistance), 1 g/ha) of 0% and a visual damage (Eleusine indica [1]; Table B1-2, biotype NTSR (non-target site resistance), 2 g/ha) of 33%. For the same molecule, the visual damage (Eleusine indica [1]; Table B1-2, biotype NTSR (non-target site resistance), 4 g/ha) was 43%, the visual damage (Eleusine indica [1]; Table B1-2, biotype NTSR (non-target site resistance), 8 g/ha) was 77% and the visual damage (Eleusine indica [1]; Table B1-2, biotype Sensitive, 15 g/ha) was 87%. The visual damage (Eleusine indica [1]; Table B1-2, biotype Sensitive, 30 g/ha) was 100%, the visual damage (Eleusine indica [1]; Table B1-2, biotype Sensitive, 60 g/ha) was 100% and the visual damage (Eleusine indica [1]; Table B1-2, biotype Sensitive, 120 g/ha) was 100%. It also gave a visual damage (Eleusine indica [1]; Table B1-3, Pop1 (mix of sensitive, D2078G and G2096A biotypes), 15 g/ha) of 10%, a visual damage (Eleusine indica [1]; Table B1-3, Pop1 (mix of sensitive, D2078G and G2096A biotypes), 30 g/ha) of 33% and a visual damage (Eleusine indica [1]; Table B1-3, Pop1 (mix of sensitive, D2078G and G2096A biotypes), 60 g/ha) of 47%. The visual damage (Eleusine indica [1]; Table B1-3, Pop1 (mix of sensitive, D2078G and G2096A biotypes), 120 g/ha) was 63%, the visual damage (Eleusine indica [1]; Table B1-3, Pop2 (mix of sensitive, D2078G and G2096A biotypes), 15 g/ha) was 10% and the visual damage (Eleusine indica [1]; Table B1-3, Pop2 (mix of sensitive, D2078G and G2096A biotypes), 30 g/ha) was 33%. It also gave a visual damage (Eleusine indica [1]; Table B1-3, Pop2 (mix of sensitive, D2078G and G2096A biotypes), 60 g/ha) of 76%, a visual damage (Eleusine indica [1]; Table B1-3, Pop2 (mix of sensitive, D2078G and G2096A biotypes), 120 g/ha) of 77% and a visual damage (Eleusine indica [1]; Table B1-3, biotype Sensitive, 15 g/ha) of 100%. It also gave a visual damage (Eleusine indica [1]; Table B1-3, biotype Sensitive, 30 g/ha) of 100%, a visual damage (Eleusine indica [1]; Table B1-3, biotype Sensitive, 60 g/ha) of 100% and a visual damage (Eleusine indica [1]; Table B1-3, biotype Sensitive, 120 g/ha) of 100%. The Control (14d) (Volunteer corn; 14d) was 90%, the Control (28d) (Volunteer corn; 28d) was 96% and the visual damage (Eleusine indica [2]; biotype D2078G, 15 g/ha) was 10%. The visual damage (Eleusine indica [2]; biotype D2078G, 30 g/ha) was 27%, the visual damage (Eleusine indica [2]; biotype D2078G, 60 g/ha) was 53% and the visual damage (Eleusine indica [2]; biotype D2078G, 120 g/ha) was 100%. The visual damage (Eleusine indica [2]; biotype D2078G, 240 g/ha) was 100%, the visual damage (Eleusine indica [2]; biotype G2096A, 15 g/ha) was 7% and the visual damage (Eleusine indica [2]; biotype G2096A, 30 g/ha) was 30%. For the same molecule, the visual damage (Eleusine indica [2]; biotype G2096A, 60 g/ha) was 78%, the visual damage (Eleusine indica [2]; biotype G2096A, 120 g/ha) was 100% and the visual damage (Eleusine indica [2]; biotype G2096A, 240 g/ha) was 100%. It also gave a visual damage (Eleusine indica [2]; biotype I2041N, 15 g/ha) of 60%, a visual damage (Eleusine indica [2]; biotype I2041N, 30 g/ha) of 27% and a visual damage (Eleusine indica [2]; biotype I2041N, 60 g/ha) of 53%. For the same molecule, the visual damage (Eleusine indica [2]; biotype I2041N, 120 g/ha) was 100%, the visual damage (Eleusine indica [2]; biotype I2041N, 240 g/ha) was 100% and the visual damage (Eleusine indica [2]; biotype Sensitive, 15 g/ha) was 92%. It also gave a visual damage (Eleusine indica [2]; biotype Sensitive, 30 g/ha) of 100%, a visual damage (Eleusine indica [2]; biotype Sensitive, 60 g/ha) of 100% and a visual damage (Eleusine indica [2]; biotype Sensitive, 120 g/ha) of 100%. The visual damage (Eleusine indica [2]; biotype Sensitive, 240 g/ha) was 100%, the visual damage (Eleusine indica [2]; biotype W2027C, 15 g/ha) was 93% and the visual damage (Eleusine indica [2]; biotype W2027C, 30 g/ha) was 100%. For the same molecule, the visual damage (Eleusine indica [2]; biotype W2027C, 60 g/ha) was 100%, the visual damage (Eleusine indica [2]; biotype W2027C, 120 g/ha) was 100% and the visual damage (Eleusine indica [2]; biotype W2027C, 240 g/ha) was 100%. For the same molecule, the visual damage (Digitaria insularis; biotype Sensitive, 15 g/ha) was 100%, the visual damage (Digitaria insularis; biotype Sensitive, 30 g/ha) was 100% and the visual damage (Digitaria insularis; biotype Sensitive, 60 g/ha) was 100%. It also gave a visual damage (Digitaria insularis; biotype Sensitive, 120 g/ha) of 100%, a visual damage (Digitaria insularis; biotype Sensitive, 240 g/ha) of 100% and a visual damage (Digitaria insularis; biotype W2027C, 15 g/ha) of 78%. For the same molecule, the visual damage (Digitaria insularis; biotype W2027C, 30 g/ha) was 100%, the visual damage (Digitaria insularis; biotype W2027C, 60 g/ha) was 100% and the visual damage (Digitaria insularis; biotype W2027C, 120 g/ha) was 100%. For the same molecule, the visual damage (Digitaria insularis; biotype W2027C, 240 g/ha) was 100%, the visual damage (Sorghum halepense; biotype Sensitive, 15 g/ha) was 83% and the visual damage (Sorghum halepense; biotype Sensitive, 30 g/ha) was 98%. The visual damage (Sorghum halepense; biotype Sensitive, 60 g/ha) was 100%, the visual damage (Sorghum halepense; biotype Sensitive, 120 g/ha) was 93% and the visual damage (Sorghum halepense; biotype Sensitive, 240 g/ha) was 98%. The visual damage (Sorghum halepense; biotype W2027C, 15 g/ha) was 50%, the visual damage (Sorghum halepense; biotype W2027C, 30 g/ha) was 92% and the visual damage (Sorghum halepense; biotype W2027C, 60 g/ha) was 100%. It also gave a visual damage (Sorghum halepense; biotype W2027C, 120 g/ha) of 100%, a visual damage (Sorghum halepense; biotype W2027C, 240 g/ha) of 100% and a visual damage (Echinochloa Crus-galli; biotype Sensitive, 15 g/ha) of 100%. The visual damage (Echinochloa Crus-galli; biotype Sensitive, 30 g/ha) was 100%, the visual damage (Echinochloa Crus-galli; biotype Sensitive, 60 g/ha) was 100% and the visual damage (Echinochloa Crus-galli; biotype Sensitive, 120 g/ha) was 100%. For the same molecule, the visual damage (Echinochloa Crus-galli; biotype Sensitive, 240 g/ha) was 100%, the visual damage (Echinochloa Crus-galli; biotype W2027C, 15 g/ha) was 83% and the visual damage (Echinochloa Crus-galli; biotype W2027C, 30 g/ha) was 100%. For the same molecule, the visual damage (Echinochloa Crus-galli; biotype W2027C, 60 g/ha) was 100%, the visual damage (Echinochloa Crus-galli; biotype W2027C, 120 g/ha) was 100% and the visual damage (Echinochloa Crus-galli; biotype W2027C, 240 g/ha) was 100%. For the same molecule, the visual damage (Echinochloa Crus-galli; population ECG-NTSR-1 (non-target-site resistance), 15 g/ha) was 95%, the visual damage (Echinochloa Crus-galli; population ECG-NTSR-1 (non-target-site resistance), 30 g/ha) was 98% and the visual damage (Echinochloa Crus-galli; population ECG-NTSR-1 (non-target-site resistance), 60 g/ha) was 100%. For the same molecule, the visual damage (Echinochloa Crus-galli; population ECG-NTSR-1 (non-target-site resistance), 120 g/ha) was 100% and the visual damage (Echinochloa Crus-galli; population ECG-NTSR-1 (non-target-site resistance), 240 g/ha) was 100%.
